Data reported in patent US8822526B2, “Synergistic pharmaceutical combination for the treatment of cancer” (Piramal Enterprises Limited, priority 2007, dated 2014).

How the values were obtained:
cyclin D1 = experiment: Western blot analysis; format: cell-based, human; details: H-460; doxorubicin 100 nM 24 hours; compound A 1200 nM 96 hours; combination sequential; FIG. 6
Procedure: (§1) At the end of the treatment period cells were lysed and protein content of the lysate was estimated using the Bradford reagent. 40 μg of protein was loaded on SDS-PAGE and transferred on PVDF membrane. The membranes were probed with p53, Bax, Bcl-2, cyclin D1, Cdk1 and actin antibodies. The primary antibody were detected with horseradish […] secondary antibody and subjected to west pico chemiluminescence reagents.
(§2) Equal amount of protein was loaded in the four lanes. The different samples loaded in the wells are described in the figure legend. […] This correlates with the increased apoptosis seen in the combination treatment in FACS analysis. The pro-apoptotic protein Bax is slightly up regulated with respect to control in all treatment samples. […] Cdk1-B1 is an initiator of mitosis. The deregulation of this enzyme leads to tumorigenesis.

Cdk1 = experiment: Western blot analysis; format: cell-based, human; details: H-460; doxorubicin 100 nM 24 hours; compound A 1200 nM 96 hours; combination sequential; FIG. 6
Procedure: as §1, §2

COX-2 = experiment: Western blot analysis using COX-2 antibody; format: in vivo, human; details: H-460 tumor xenograft; FIG. 9
Source text: FIG. 9 indicates western blot analysis using COX-2 antibody.
Therefore, NFκB mediated inhibition of COX-2 by the compound A could be involved in suppressing tumor growth and doxorubicin induced chemoresistance in human non-small cell lung carcinoma (H-460) tumor xenograft.

[1] = system: human non-small cell lung carcinoma H-460; experiment: Analysis of cell cycle distribution and flow cytometry (sub G1 apoptosis); format: cell-based
Procedure: The human non-small cell lung carcinoma H-460 was seeded in 25 mm^3 tissue culture flasks. […] The control cells were left untreated for 96 hours or 120 hours. Both detached and adherent cells were harvested at different time points. The cells were washed twice with approximately 5 mL of PBS with centrifugation at 1000 rpm for 10 minutes. The cells were re-suspended in 500 μL of PBS and fixed in 500 μL ice-cold 70% ethanol. The fixed cells were incubated at room temperature for 30 minutes, spun at 1000 rpm for 10 minutes. To the cell pellet 1 mL of chilled 70% ethanol was added and the cell pellet was then kept in fridge till further analysis. Cells were washed twice with PBS to remove fixative and re-suspended in 250 μL PBS. To this 50 μL of propidium iodide (4 mg/mL in PBS) and 12.5 μL Rnase A (1 mg/mL) was added. After incubation at 37° C. for 30 minutes, cells were analyzed using flow cytometry.
A Becton Dickinson FACS Calibur flow cytometer was used in accordance with the manufacturer's recommendations. The argon ion laser set at 488 nm was used as an excitation source. Cells with DNA content between 2n and 4n were designated as being in G1, S and G2/M phases of the cell cycle, as defined by the level of red fluorescence. […] The number of cells in each cell cycle compartment was expressed as a percentage of the total number of cells present
About 1-2×10^6 cells were seeded in a tissue culture flask for the treatment groups. The assay protocol was as mentioned above in “analysis of cell cycle distribution and flow cytometry”. The cell cycle was divided in four parts, which are represented in the FIG. 1 as M1, M2, M3 and M4. M1 corresponds to the G1 phase, M2 to the S phase, M3 to the G2-M phase and M4 to the sub G1 phase, which represents the cells undergoing apoptosis.
About 1-2×10^6 cells were seeded in a tissue culture flask for the treatment groups. The assay protocol was as mentioned above in “analysis of cell cycle distribution and flow cytometry”. The cell cycle was divided in four parts, which are represented in the figure as M1, M2, M3 and M4. M1 corresponds to the G1 phase, M2 to the S phase, M3 to the G2-M phase and M4 to the sub G1 phase, which represents the cells undergoing apoptosis.

[2] = FIG. 1: 200 nM doxorubicin alone (24 hours), 800 nM compound A alone (72 hours), combination 200 nM doxorubicin (24 hours) followed by 800 nM compound A (72 hours)
[3] = FIG. 2: 100 nM doxorubicin alone (24 hours), 1200 nM compound A alone (96 hours), combination 100 nM doxorubicin (24 hours) followed by 1200 nM compound A (96 hours)

Structure (SMILES)	Cyclin D1 levels (western blot) (cyclin D1)	Cdk1 levels (western blot) (Cdk1)	COX-2 levels (western blot) (COX-2)	apoptosis (sub G1 phase) [1, 2] [%]	apoptosis (sub G1 phase) [1, 3] [%]
CN1CC[C@@H](c2c(O)cc(O)c3c(=O)cc(-c4ccccc4Cl)oc23)[C@@H]1CO.Cl [Compound A, (+)-trans-2-(2-Chloro-phenyl)-5,7-dihydroxy-8-(2-hydroxymethyl-1-methyl-pyrrolidin-3-yl)-chromen-4-one hydrochloride]	slight reduction	levels equal to control	low levels of COX-2	10	32
COc1cccc2c1C(=O)c1c(O)c3c(c(O)c1C2=O)C[C@@](O)(C(=O)CO)C[C@@H]3O[C@H]1C[C@H](N)[C@H](O)[C@H](C)O1 [Doxorubicin]	slight reduction	significantly induces Cdk1 levels	strongly induced COX-2	10	3
